# Experimental data taken from patent US5256788A, “Moranoline derivatives and their production and the use of moranoline and its derivatives as a stabilizing agent for enzymes” (Nippon Shinyaku Co. Ltd., priority 1989, dated 1993).
# Experiments:
# β-amylase = β-amylase (Glycine max, UniProt P10538); test: Stabilization of β-amylase by moranoline; format: biochemical, soybean; details: 6000 μg/ml, incubated at 65° C., pH 4.8
# Description: For control, a sample added with no moranoline was used.
# The activity of β-amylase was determined by the 3,5-dinitrosalicylic acid method of Example 37.
# glucoamylase = biological target: T1, glucoamylase (Rhizopus arrhizus, UniProt P07683); test: Stabilization of GA (aqueous solution) by moranoline, N-methylmoranoline; format: biochemical, Rhizopus niveus
# T1 construct: maltose substrate
# Description: As the enzyme, Rhizopus niveus-derived reagent glucoamylase manufactured by Seikagaku Kogyo Co., Ltd. was used.
# After 5 mg of the enzyme was dissolved in 1 ml of 0.1M acetate buffer solution (pH 5.0), moranoline and N-methylmoranoline were dissolved in the solution in a concentration of 6000 μg/ml. The solution was charged in a test tube with a screw stopper followed by incubation at 50° C. Each enzyme solution was diluted with 0.1M acetate buffer solution (pH 5.0) to 100-fold and 100 μl of the dilution was taken. After 400 μl of 5% maltose solution (0.05M acetate buffer solution, pH 4.6) was added thereto, the mixture was reacted at 40° C. for 20 minutes. […] Thereafter, the system was ice cooled and absorbency was measured at 500 nm to determine the glucose amount. […] When the initial enzyme activity (amount of glucose produced) was made […], relative enzyme activity was determined. […]
# After 5 mg of the enzyme was dissolved in 1 ml of 0.1M acetate buffer solution (pH 5.0), moranoline and N-methylmoranoline were dissolved in the solution in a concentration of 6000 μg/ml. […] Thereafter, the system was ice cooled and absorbancy was measured at 500 nm to determine the glucose amount. […] When the initial enzyme activity (amount of glucose produced) was made 100, relative enzyme activity was determined. […]
# β-glucosidase = test: Stabilization of β-glucosidase by moranoline and N-methylmoranoline; format: biochemical; details: 6 mg/ml of the hydrochloride, kept at 60° C.
# Description: Test samples were (1) 1 ml of 0.2M buffer solution of β-glucosidase (300 μg/ml) alone, (2) 1 ml of 0.2M buffer solution of β-glucosidase (300 μg/ml) supplemented with 6 mg/ml of moranoline hydrochloride and, (3) 1 ml of 0.2M buffer solution of β-glucosidase (300 μg/ml) supplemented with 6 mg/ml of N-methylmoranoline hydrochloride. These test samples were kept at 60° C. and the residual enzyme activity was measured with passage of time.
# For determination of the enzyme activity, there was used a method measuring absorbancy at 400 nm using […] as a substrate.
# That is, 200 μl of 0.014M p-nitrophenyl-β-D-glucoside, 200 μl of the enzyme solution taken from each sample for sampling with passage of time which was appropriately diluted, and 600 μl of 0.2M acetate buffer solution (pH 4.5) were reacted at 30° C. for 15 minutes. After 2 ml of 0.1M disodium carbonate was added thereto to terminate the reaction, a color was formed and the color was measured at 400 nm. When absorbancy at the initiation of the reaction was made 100, relative absorbancy in each time was defined to be residual activity.
# T1 sequence (P07683 26-604): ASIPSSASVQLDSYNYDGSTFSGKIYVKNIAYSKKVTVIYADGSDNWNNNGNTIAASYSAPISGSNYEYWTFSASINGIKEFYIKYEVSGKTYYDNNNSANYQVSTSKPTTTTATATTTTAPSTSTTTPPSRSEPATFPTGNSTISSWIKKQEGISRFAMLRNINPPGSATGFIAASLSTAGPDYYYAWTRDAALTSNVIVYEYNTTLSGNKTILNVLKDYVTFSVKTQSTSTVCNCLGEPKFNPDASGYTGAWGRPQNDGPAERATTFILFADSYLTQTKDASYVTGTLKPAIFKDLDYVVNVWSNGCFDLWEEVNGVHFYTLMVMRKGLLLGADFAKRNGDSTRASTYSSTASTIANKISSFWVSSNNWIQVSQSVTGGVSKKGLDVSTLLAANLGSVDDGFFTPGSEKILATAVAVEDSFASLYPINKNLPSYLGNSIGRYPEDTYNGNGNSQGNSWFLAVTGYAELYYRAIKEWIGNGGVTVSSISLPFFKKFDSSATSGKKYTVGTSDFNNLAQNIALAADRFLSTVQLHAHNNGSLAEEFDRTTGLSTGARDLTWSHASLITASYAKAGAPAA
# β-amylase, sequence (P10538 whole entry): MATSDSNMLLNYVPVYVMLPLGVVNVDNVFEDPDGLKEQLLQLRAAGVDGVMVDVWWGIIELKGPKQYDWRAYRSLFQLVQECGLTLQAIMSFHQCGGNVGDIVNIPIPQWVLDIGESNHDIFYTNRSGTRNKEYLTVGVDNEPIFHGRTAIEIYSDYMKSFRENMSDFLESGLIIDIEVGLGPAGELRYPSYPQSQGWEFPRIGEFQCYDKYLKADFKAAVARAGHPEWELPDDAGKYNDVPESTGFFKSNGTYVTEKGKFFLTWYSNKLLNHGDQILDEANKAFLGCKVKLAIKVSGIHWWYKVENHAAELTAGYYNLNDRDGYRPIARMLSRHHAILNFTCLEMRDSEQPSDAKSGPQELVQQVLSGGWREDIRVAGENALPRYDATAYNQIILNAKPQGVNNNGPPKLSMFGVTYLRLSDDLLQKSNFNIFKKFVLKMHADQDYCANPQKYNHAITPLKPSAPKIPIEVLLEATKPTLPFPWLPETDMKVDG
structure (smiles),measurement,setting,value
OC[C@H]1NC[C@H](O)[C@@H](O)[C@@H]1O [moranoline],"stabilizing action (residual activity, FIG. 6)",β-amylase,stabilizing action
same,inhibition of the enzyme activity of glucoamylase,glucoamylase,inhibit the enzyme activity of glucoamylase
same,"stabilizing effect (residual activity, FIG. 4)",β-glucosidase,stabilizing effect
